This experiment has as its system corneal damage in corneal disorder models. Briefly: Test for therapeutic effect on corneal damage (rat corneal disorder model, exorbital lacrimal gland removal, fluorescein staining score). It counts as in vivo, male SD rats. Conditions: for Improvement ratio (%): {(control)-(compound)}/{(control)-(normal eye)}x100; for Mean value of total scores: fluorescein staining score of cornea (upper, middle, lower parts, each 0-3), mean of 8 eyes. The method, then: Test for Therapeutic Effect on Corneal Damage Using male SD rats, in accordance with the method of Fujihara et al. (Invest. Ophthalmol. Vis. Sci. 42 (1): 96-100 (2001)), corneal disorder models were produced. After the production of the corneal disorder models, the improvement ratio of a corneal damage was evaluated according to the method of Murakami et al. (Journal of the eye 21 (1): 87-90 (2004)). Male SD rats were systemically anesthetized by an administration of Nembutal. Subsequently the exorbital lacrimal gland of each rat was removed and a corneal damage was induced over a period of 2 months. Then, E-4-[4-(5-methyl-2-phenyl-4-oxazolylmethoxy) benzyloxyimino]-4-phenylbutyric acid (Compound A), Z-2-[4-(5-methyl-2-phenyl-4-oxazolylmethoxy) benzyloxyimino]-2-(4-phenoxyphenyl) acetic acid (Compound B), 2-[2-propyl-3-[3-[2-ethyl-4-(4-fluorophenyl)-5-hydroxyphenoxy]propoxy]phenoxy]sodium benzoate (Compound C) or 2(S)-methoxy-3-[4-[3-(4-phenoxyphenoxy)propoxy]phenyl] propionic acid (Compound D) was administered to the rats as follows. A physiological saline solution of Compound A (0.006%) was instilled into both eyes 6 times a day for 7 days (one group consisting of 4 animals, 8 eyes). A physiological saline solution of Compound B (0.006%) was instilled into both eyes 6 times a day for 7 days (one group consisting of 4 animals, 8 eyes). A physiological saline solution of Compound C (0.006%) was instilled into both eyes 6 times a day for 7 days (one group consisting of 4 animals, 8 eyes). A phosphate-buffered saline (PBS) solution of Compound D (0.002%) was instilled into both eyes 6 times a day for 7 days (one group consisting of 4 animals, 8 eyes). In a control group, physiological saline or PBS was instilled into both eyes 6 times a day for 7 days (one group consisting of 4 animals, 8 eyes). Seven days after the start of instillation, the damaged parts of the cornea were stained with fluorescein. For each of the upper, middle and lower parts of the cornea, the degree of fluorescein staining was evaluated by scoring according to the criteria shown below and the mean value of the total scores for each of the above-mentioned parts was calculated. • 0: No punctate staining • 1: Scattered staining (punctate staining being separated) • 2: Moderate staining (a part of punctuate staining being adjacent) • 3: Heavy staining (punctate staining being barely separated) (Results) By taking the mean value of the total scores for the control group (physiological saline or PBS) as a standard (improvement ratio: 0%), the calculation was carried out. Each of the improvement ratios for the Compound A administration group, the Compound B administration group and the Compound C administration group is shown in Table 1 and the improvement ratio for the Compound D administration group is shown in Table 2. The mean value of the scores is a mean of those of 8 cases, respectively. The improvement ratio was calculated according to the following equation. Improvement ratio (%)={(control)−(the present compound)}/damage degree×100 Damage degree={(control)−(normal eye)}

Where [1] appears, read: 0.006% in physiological saline instilled into both eyes 6 times a day for 7 days, vs physiological saline control (0%).
Where [2] appears, read: 0.006% in physiological saline instilled into both eyes 6 times a day for 7 days, normal eye 3.0, saline control 6.1.

For `Cc1oc(-c2ccccc2)nc1COc1ccc(CO/N=C(\CCC(=O)O)c2ccccc2)cc1` [Compound A, E-4-[4-(5-methyl-2-phenyl-4-oxazolylmethoxy)benzyloxyimino]-4-phenylbutyric acid], the “Improvement ratio (%)” value under setting [1] was 32.3%. Also, under setting [2], the “Mean value of total scores” value was 5.1.

In the case of `Cc1oc(-c2ccccc2)nc1COc1ccc(CO/N=C(\C(=O)O)c2ccc(Oc3ccccc3)cc2)cc1` [Compound B, Z-2-[4-(5-methyl-2-phenyl-4-oxazolylmethoxy)benzyloxyimino]-2-(4-phenoxyphenyl) acetic acid], under setting [1], the “Improvement ratio (%)” value was 32.3%. Besides, the “Mean value of total scores” value under setting [2] stood at 5.1.

Consider `CCCc1c(OCCCOc2cc(O)c(-c3ccc(F)cc3)cc2CC)cccc1Oc1ccccc1C(=O)[O-].[Na+]` [Compound C, 2-[2-propyl-3-[3-[2-ethyl-4-(4-fluorophenyl)-5-hydroxyphenoxy]propoxy]phenoxy]sodium benzoate], for which, under setting [1], the “Improvement ratio (%)” value is recorded as 38.7%. Besides, the “Mean value of total scores” value under setting [2] was determined as 4.9.

As for `CO[C@@H](Cc1ccc(OCCCOc2ccc(Oc3ccccc3)cc2)cc1)C(=O)O` [Compound D, 2(S)-methoxy-3-[4-[3-(4-phenoxyphenoxy)propoxy]phenyl] propionic acid], the “Improvement ratio (%)” value (0.002% in PBS instilled into both eyes 6 times a day for 7 days, vs PBS control (0%)) was 12.0%. Moreover, for the setting “0.002% in PBS instilled into both eyes 6 times a day for 7 days, normal eye 3.1, PBS control 5.6”, the “Mean value of total scores” value stood at 5.3.

These data come from US20080070958A1, “Therapeutic Agent for Keratoconjunctival Disorder” (priority 2004, published 2008).
